Data: patent publication US20220227815A1, “COMPOSITIONS AND METHODS USEFUL IN TREATING BRAIN DISEASES” (University of Kansas, priority 2019, published 2022)
Several values for one entry are separate records, joined by “and”; a condition that tells them apart may be missing. Equal values may be shown once. Entries after “also recorded” stand apart in the source; their conditions may differ. Non-standard residues stand in square brackets, D forms with d. Residues, ends and D or L forms follow the SMILES beside them. ξ: configuration not given here. Thr(3ξ) = CC(O)[C@H](N)C(=O)O

Columns and labels:
[1] = test system: blood-brain barrier (BBB); assay: In vivo brain delivery of IRdye800CW-IgG mAb, NIRF quantification in brain homogenates; conditions: C57BL/6 mice; for average amount of IgG mAb in the brain: IRdye800CW-IgG mAb 21.6 nmol/kg i.v. alone or with 13 μmol/kg peptide, 15 min circulation, n=3; for brain delivery of IgG mAb compared to control (IgG mAb alone): IgG mAb 21.6 nmol/kg + 13 μmol/kg peptide i.v.
Experimental: (§1) The activity of each peptide in enhancing blood-brain barrier (BBB) penetration was evaluated by delivering IRdye800CW donkey anti-goat IgG mAb in C57BL/6 mice; the amounts of mAb in the brain were determined using NIRF imaging. Each group contained 3 mice per group (n=3) with a mixture of male and female mice, selected randomly for each arm of the study. The injection solution was prepared by adding 600 μL PBS into 0.5 mg lyophilized IgG mAb; then, approximately 1.5 mg lyophilized peptide was added into the mixture yielding the injectable formulation. A 100 μL solution of a mixture containing IgG mAb (21.6 nmol/kg) along with 13 μmol/kg peptide of the present technology was administered via tail vein. As a control, 100 μL of IgG mAb alone was administered via i.v. route. After the delivered molecules had been circulating for 15 min, the mice were sacrificed; then, a mixture of PBS with 0.5% Tween20 was administered for cardiac perfusion to remove the blood and […] molecules into the brain microvessels. The brain and other organs such as lung, heart, spleen, liver, and kidney were harvested and rinsed with PBS. The isolated organs were scanned with Odyssey® CLx for mAb quantification.
The brain deposition of IgG mAb was also quantified by NIRF imaging in brain homogenates. The isolated brains were mechanically homogenized in 2.0 mL of PBS. To make the standard solutions, IRDye800CW IgG mAb stock solution (70 μg/mL) was prepared; it was then diluted with various amounts of PBS to make six different mAb concentrations. To generate a calibration curve, the brain homogenate (200 μL) was aliquoted out to a 96-well plate. 10 μL of each concentration of IgG mAb was added to three different wells of blank brain homogenates. The standard spiked homogenates were at a range of 10-200 ng/mL IgG mAb in brain homogenate. The wells were scanned using the Odyssey® CLx scanner, and the signal intensities vs. concentrations of mAb per gram of brain were used to generate a calibration curve.
(§2) The BBB modulatory activities of ADTC5 and HAV6 to enhance brain delivery of IRdyeR800CW-labeled lysozyme, albumin, IgG mAb, and fibronectin were compared in C57BL/6 mice. The proteins with or without 13 μmol/kg HAV6 or ADTC5 were administered via tail vein injection. For lysozyme, the delivered doses were 21.6 and 54 nmol/kg. For albumin, IgG mAb, and fibronectin, the dose used was 21.6 nmol/kg. Fifteen minutes after IgG mAb administration with or without a peptide of the present technology, the animals were sacrificed and PBS with 0.5% Tween-20 was administered for cardiac perfusion to remove the remaining protein in the BBB microvessels. The brain and other organs such as lung, heart, spleen, liver and kidney were harvested and rinsed with PBS. Protein depositions in the brain and other organs were quantified by NIRF imaging using an Odyssey CLx NIRF scanner.
(§3) A second quantification method was done using brain homogenates. In this case, the brains were homogenized in 2.0 mL PBS by mechanical disruption and 200 μL of homogenized brain (n=8) was aliquoted to a 96-well plate followed by quantification using the Odyssey CLx scanner. The signal intensity was compared to calibration curve and normalized to brain weight and homogenate volume.

[2] = Peripheral organ deposition of IRdye800CW-labeled proteins by NIRF imaging; format: in vivo, C57BL/6 mice; conditions: for IgG mAb deposition in other organs (liver, kidney, heart, spleen, lungs) compared to control: IgG mAb 21.6 nmol/kg + 13 μmol/kg peptide i.v., NIRF signal intensity, n=3
Experimental: as §1, §2

[3] = test system: blood-brain barrier (BBB); assay: In vivo brain delivery of IRdye800CW-lysozyme (15 kDa); design: species or system C57BL/6 mice; conditions: for amount of lysozyme in the brain: IRdye800CW-lysozyme 54 nmol/kg i.v. alone or with 13 μmol/kg peptide, C57BL/6 mice
Experimental: Preparation of Stock and Standard Curves. The stock solution for IRDye800CW protein (i.e., lysozyme, 70 μg/mL) was prepared and stored at −80° C. The stock solution was later diluted with PBS to make the required standard solutions. To produce a standard calibration curve, 200 μL of blank brain homogenates was spiked with 10 μL standard solutions of various concentrations to yield a linear range from 0.5 to 50 ng/mL. The same method was employed for the sample's quality control (QC).
as §2, §3
(§4) Brain Perfusion. After euthanasia using CO2 chamber, mice were immediately subjected to cervical dislocation followed by removal of IRdye800CW-labeled protein from the brain capillaries using perfusion solution. In this case, a solution containing PBS with 0.2% Tween-20 was transcardially perfused to remove the remaining protein molecules in the brain endothelial microvessels. After perfusion, the brain was removed from the skull and subjected to capillary depletion.

[4] = test system: blood-brain barrier (BBB); assay: In vivo brain delivery of IRdye800CW-albumin (65 kDa); conditions: IRdye800CW-albumin 21.6 nmol/kg i.v. alone or with 13 μmol/kg peptide, C57BL/6 mice
Experimental: as §2, §3, §4

[5] = test system: blood-brain barrier (BBB); assay: In vivo brain delivery of IRdye800CW-fibronectin (220 kDa); design: species or system C57BL/6 mice; conditions: IRdye800CW-fibronectin 21.6 nmol/kg i.v. alone or with ADTC5 13 μmol/kg
Experimental: as §2, §3, §4

[6] = albumin 21.6 nmol/kg with 13 μmol/kg peptide, NIRF

| IgG mAb deposition in other organs (liver, kidney, heart, spleen, lungs) compared to control [2] | Compound | average amount of IgG mAb in the brain [1] | brain delivery of IgG mAb compared to control (IgG mAb alone) [1] | other results |
| --- | --- | --- | --- | --- |
| no significant difference | CC(C)[C@@H]1NC(=O)[C@H](C)NC(=O)[C@H](Cc2c[nH]cn2)NC(=O)[C@H](CO)NC(=O)[C@H](CO)NC1=O [HAVN2, cyclo(1,5)SHAVS] (cyclo(AVSSH)) | 8.8±0.6 pmol/g brain | significantly enhanced; also recorded: significant difference |  |
| no significant difference | CC(=O)N[C@@H](CO)C(=O)N[C@@H](Cc1c[nH]cn1)C(=O)N[C@@H](C)C(=O)N[C@H](C(=O)N[C@@H](CO)C(=O)N[C@@H](CO)C(N)=O)C(C)C [HAV6, acetyl-SHAVSS-NH2] (Ac-SHAVSS-NH2) | 3.4±0.4 pmol/g brain and 3.42±0.5 pmol/g brain and 3.4 ± 0.5 pmol/g brain | did not enhance; also recorded: not able to deliver mAb | distribution of mAb into liver ([2]; IgG mAb 21.6 nmol/kg with 13 μmol/kg peptide, compared to control): about the same; deposition of albumin in the spleen compared to control [2, 6]: enhanced; distribution of albumin into the liver compared to control [2, 6]: significantly enhanced; lysozyme deposition in the kidney ([2]; lysozyme 54 nmol/kg with 13 μmol/kg peptide, NIRF): followed by the HAV6-treated group; amount of lysozyme in the brain [3]: 8.3±2.5 pmol/g brain; brain delivery of lysozyme compared to lysozyme alone ([3]; lysozyme 21.6 nmol/kg with 13 μmol/kg peptide): no significant improvement; amount of albumin in the brain [4]: 15.5±3.1 pmol/g brain |
|  | fibronectin [reference compound] |  |  | NIRF signal of fibronectin in brain homogenates [5]: 33.026±2.080 ×10^3 A.U. |
| no significant difference | CC(C)[C@@H]1NC(=O)[C@H](C)NC(=O)[C@H](Cc2c[nH]cn2)NC(=O)[C@H](CO)NC(=O)[C@H](CO)NC(=O)[C@H](CO)NC1=O [HAVN1, cyclo(1,6)SHAVSS] (cyclo(AVSSSH)) | 8.6±0.5 pmol/g brain | significantly enhanced; also recorded: significant difference |  |
|  | Lysozyme [reference compound] |  |  | amount of lysozyme in the brain [3]: 0 ± 0 pmol/g brain; amount of lysozyme in the brain ([3]; listed as lysozyme): below the detection limits |
|  | Albumin [reference compound] |  |  | amount of albumin in the brain [4]: 11.8 ± 1.0 pmol/g brain; amount of albumin in the brain ([4]; listed as albumin): 11.8±1.0 pmol/g brain |

| Compound | IgG mAb deposition in other organs (liver, kidney, heart, spleen, lungs) compared to control [2] | average amount of IgG mAb in the brain [1] | brain delivery of IgG mAb compared to control (IgG mAb alone) [1] | other results |
| --- | --- | --- | --- | --- |
| CC(=O)N[C@H](C(=O)N1CCC[C@H]1C(=O)N1CCC[C@H]1C(=O)N[C@H](C(=O)N[C@@H](CO)C(=O)N[C@@H](Cc1c[nH]cn1)C(=O)N[C@@H](C)C(=O)N[C@H](C(N)=O)C(C)C)C(C)C)C(C)O (stereo partly drawn) [linear ADTHAV] | significant effects on the distribution of IgG mAb in the heart and kidney; also recorded: significance differences in the IgG mAb signal intensities for kidney and heart | 11.8±0.5 pmol/g brain | significantly better than in the PBS control; also recorded: significant difference |  |
| CC(C)[C@@H]1NC(=O)[C@H](C)NC(=O)[C@H](Cc2c[nH]cn2)NC(=O)[C@H](CO)NC(=O)[C@H](C(C)C)NC(=O)[C@@H]2CCCN2C(=O)[C@@H]2CCCN2C(=O)[C@H](C(C)O)NC1=O (stereo partly drawn) (cyclo(AV[Thr(3ξ)]PPVSH)) | significant increases in deposition of IgG mAb in liver, kidney, spleen, and lungs; also recorded: significant differences in the IgG mAb signal in lung, kidney, spleen, and liver | 15.7±0.8 pmol/g brain | significantly better than in the PBS control; also recorded: significant difference |  |
